Values after ≈ are worked out from the molar mass of the structure shown.
Key:
P388 = experiment: Cytotoxicity against mouse P388 cells; assay type: functional; settings: read-out: ED50 (the source's name)
KB = experiment: Cytotoxicity against human KB cells; assay type: functional; settings: read-out: ED50 (the source's name)

Work on `COc1cc2ccc(=O)oc2c(OC)c1O` yielded an EC50 (P388) of 1.7 µg/mL (≈ 7.65 µM) and an EC50 (KB) greater than 100 µg/mL.

From ChEMBL document CHEMBL1151354, “Isofraxidin, a cytotoxic coumarin from Micrandra elata (Euphorbiaceae)” (1980)
